The values below come from patent US20110034472A1, “Novel Compounds for Treatment of Cancer and Disorders Associated With Angiogenesis Function” (UNIVERSITY OF SOUTHERN CALIFORNIA, priority 2004, published 2011).

Counter-ions that a name gives are not always drawn. Like-named read-outs stand apart in the source and are kept apart here. Where only a bound is given, the exact number is not on record here.

For one series, the system named is MDA-MB-435 cells. Kind of series: MTT assay, continuous drug exposure for 48 hours (Table 3). The format is cell-based, human. To be noted: Homo sapiens; for CC50: MDA-MB-435; for IC80: MDA-MB-435, read-out: CC80. Background: Formazan colour is commonly taken as a measure of viable cells.
The next series concerns CEM or HEY cells. Description: Cytotoxicity of salicylhydrazides (Table 5). The format is cell-based. To be noted: Homo sapiens. An excerpt:
Human prostate cancer cells (PC3, p53 null, AR−; DU145, p53 mutant, AR−; and LNCaP, p53 wild-type, AR+) and breast cancer cells (MCF-7, overexpressed wild-type p53, ER+; MDA-MB-468, p53 mutant, […]; and MDA-MB-435, p53 mutant, ER−) were obtained from American Type Cell Culture (Manassas, Va.). The human ovarian carcinoma cell line (HEY) naturally resistant to cisplatin (CDDP) was kindly provided by Dr. Dubeau (University of Southern California Norris Cancer Center; Buick et al. (1985) Cancer Res. 45:3668-76 and Hamaguchi et al. (1993) Cancer Res. 53:5225-32). The results with CEM cells were previously described (Neamati et al. (1998) J. Med. Chem. 41:3202-9). Cells were maintained as monolayer cultures in RPMI 1640 supplemented with 10% fetal bovine serum (Gemini-Bioproducts, Woodland, Calif.) and 2 mmol/L L-glutamine at 37° C. in a humidified atmosphere of 5% CO2. To remove the adherent cells from the flask for passaging and counting, cells were washed with PBS without calcium or magnesium, incubated with a small volume of 0.25% trypsin-EDTA solution (Sigma-Aldrich, St. Louis, Mo.) for 5 to 10 minutes, and washed with culture medium and centrifuged. All experiments were done using cells in exponential cell growth.
(§1) Cytotoxicity was assessed by a 3-(4,5-dimethylthiazol-2-yl)-2,5-diphenyltetrazolium bromide assay as previously described (Carmichael et al. (1987) Cancer Res. 47:936-42). Briefly, cells were seeded in 96-well microtiter plates (PC3 and DU145 at 5,000 cells/well and LNCaP at 10,000 cells/well; breast and ovarian cells at 4,000 cells/well) and allowed to attach. Cells were subsequently treated with a continuous exposure to the corresponding drug for 72 hours. A 3-(4,5-dimethylthiazol-2-yl)-2,5-diphenyltetrazolium bromide solution (at a final concentration of 0.5 mg/mL) was added to each well and cells were incubated for 4 hours at 37° C. After removal of the medium, DMSO was added and the absorbance was read at 570 nm. All assays were done in triplicate. The IC50 was then determined for each drug from a plot of log(drug concentration) versus percentage of cell kill.

For series [1], the system named is MDA-MB-435 breast cancer cells. Kind of series: MTT cytotoxicity assay, MDA-MB-435. It is filed as cell-based, human. Particulars: MTT, 72 h, read-out: IC50. How it is done: The sensitivity of a panel of seven human cancer cell lines to SC144 was assessed by MTT-assay. […] The sensitivity towards SC144 was time- and dose-dependent.
as §1
(§2) Cytotoxicity was assessed by a 3-(4,5-dimethylthiazol-2-yl)-2,5-diphenyltetrazolium bromide (MTT) assay as previously described.^9 Briefly, cells were seeded in 96-well microtiter plates and allowed to attach. Cells were subsequently treated with continuous exposure to the corresponding drug for 72 h. An MTT solution (at a final concentration of 0.5 mg/mL) was added to each well, and cells were incubated for 4 h at 37° C. After removal of the medium, DMSO was added and the absorbance was read at 570 nm. All assays were done in triplicate. The IC50 was then determined for each drug from a plot of log (drug concentration) versus percentage of cells killed.

Series [2] relates to HCT 116 p53^+/+ colon cancer cells. Kind of series: MTT cytotoxicity assay, HCT 116 p53+/+. It is filed as cell-based, human. To be noted: 72 h.
Source text: (§3) Human breast cancer cells MDA-MB-435 and colon cancer HT29, p53 mutant were purchased from the American Type Cell Culture (Manassas, Va.). The HCT116 P53^+/+ and HCT116 P53^−/− cells were kindly provided by Dr. Bert Vogelstein (Johns Hopkins Medical Institutions, Baltimore, Md.). Human prostate cancer cells, LNCaP, were kindly provided by Richard Cote (University of Southern California Keck School of Medicine). Cells were maintained as monolayer cultures in RPMI 1640 media supplemented with 10% fetal bovine serum (Gemini-Bioproducts, Woodland, Calif.) and 2 mmol/L L-glutamine at 37° C. in a humidified atmosphere of 5% CO2. To remove the adherent cells from the flask for passaging and counting, cells were washed with PBS without calcium or magnesium, incubated with a small volume of 0.25% trypsin-EDTA solution (Sigma-Aldrich, St. Louis, Mo.) for 5-10 min, and washed with culture medium and centrifuged. All experiments were performed using cells at exponential growth stage. Cells were routinely checked for mycoplasma contamination using a PCR-based assay (Stratagene, Cambridge, UK).
as §2

Series [3] has as its system HCT 116 p53^−/− colon cancer cells. Kind of series: MTT cytotoxicity assay, HCT 116 p53-/-. Particulars: 72 h. The format is cell-based, human.
Source text: as §3, §2

In the next series the test system is HT29 colon cancer cells. Description: MTT cytotoxicity assay, HT 29. The format is cell-based, human. To be noted: 72 h.
Source text: as §3, §2

The melting point is the temperature of the solid-liquid transition. `O=C(NNc1nc2cc(F)ccc2n2cccc12)c1ccccn1` (as salt: hydrochloride) [SC160′, N′-(7-Fluoropyrrolo[1,2-a]quinoxalin-4-yl)pyridine-2-carbohydrazide hydrochloride]: the melting point was > 280 °C (dec.).

On to `O=C(NNc1nc2cccc(F)c2n2cccc12)c1cnccn1` (as salt: hydrochloride) [SC161′, N′-(9-Fluoropyrrolo[1,2-a]quinoxalin-4-yl)pyrazine-2-carbohydrazide hydrochloride], for which the melting point is 248 °C (dec.).

Regarding `O=C(NNc1nc2cc(F)ccc2n2cccc12)c1cnc2ccccc2n1` (as salt: hydrochloride) [SC166′, N′-(7-Fluoropyrrolo[1,2-a]quinoxalin-4-yl)quinoxaline-2-carbohydrazide hydrochloride], the melting point was 280 °C (dec.).

As usually defined, the CC50 is the concentration at which the toxic effect on the cells reaches its halfway point. A lower CC50 goes with harm at low concentration. With `COc1cc([C@@H]2c3cc4c(cc3[C@@H](O[C@@H]3O[C@@H]5CO[C@@H](C)O[C@H]5[C@H](O)[C@H]3O)[C@H]3COC(=O)[C@H]23)OCO4)cc(OC)c1O` [Etoposide], in the series on MDA-MB-435 cells, it took 52.5 ± 3.5 µM to reach half-maximal cytotoxicity (CC50) and the IC80 came out at 300 ± 106 µM.

With `O=C1c2c(O)ccc(O)c2C(=O)c2c(NCCNCCO)ccc(NCCNCCO)c21` [Mitoxantrone], in the series on MDA-MB-435 cells, it took 4.5 ± 1.4 µM to reach half-maximal cytotoxicity (CC50) and the IC80 came to 7.3 ± 0.35 µM.

The term IC50 denotes the concentration needed to halve the response being measured. Turning to `O=C(NNC(=O)c1ccccc1O)c1ccccc1O` [SC20], the IC50 with CEM or HEY cells turned out to be 0.1 ± 0.01 µM.

In the series on CEM or HEY cells, `COc1ccc(/C=C2/C(=O)N(C(=O)c3ccccc3O)N=C2C)cc1OC` [SC25] registered an IC50 of 0.15 µM.

The molecule `CC1=NN(C(=O)c2ccccc2O)C(=O)/C1=C/c1ccccc1O` [SC26] had an IC50 with CEM or HEY cells of 0.06 µM.

Take `CC1=NN(C(=O)c2ccccc2O)C(=O)/C1=C/c1ccc(O)cc1` [SC27]: the concentration for half-maximal inhibition (IC50) with CEM or HEY cells is 0.06 µM.

`O=C(CN1C(=O)C/C(=C\c2ccc(Cl)cc2)C1O)NNC(=O)C1=CCCC=C1O` (stereo not drawn) [SC28] registered an IC50 with CEM or HEY cells of 10 ± 2 µM.

On to `Cc1cccc(C(=O)NNC(O)c2ccc(N3C(=O)c4ccccc4C3=O)cc2)c1` (stereo not drawn) [SC29], for which, in the series with CEM or HEY cells, the 50% inhibitory concentration (IC50) amounted to 7 ± 2 µM.

In the series with CEM or HEY cells, `O=C(CNC(=O)c1ccccc1O)c1ccc(N2C(=O)c3ccccc3C2=O)cc1` [SC30] showed an IC50 of 6.5 ± 1 µM.

Take `C=C/C=C(\C=C)N1N=C(C)/C(=C(/NNC(=O)c2ccccc2O)c2ccccc2)C1=O` [SC31]: the IC50 in the series with CEM or HEY cells worked out at 10 ± 2 µM.

In the series on CEM or HEY cells, `C=C/C=C(\C=C)N1N=C(C)/C(=C/NNC(=O)c2ccccc2)C1=O` [SC32] showed an IC50 of 2 ± 1 µM.

Take `O=C(/C=C/NNC(=O)c1ccccc1O)c1ccccc1` [SC33]: the IC50 in the series on CEM or HEY cells was 20 µM.

`O=C(COc1ccccc1Cl)NNC(=O)c1cc2ccccc2cc1O` [SC34] displayed an IC50 with CEM or HEY cells of 20 µM.

Molecule `COc1ccc2oc(=O)c(C(=O)NNC(=O)c3cccc(C)c3)cc2c1` [SC35] came in with a half-inhibitory concentration (IC50) in the series with CEM or HEY cells of 12 ± 2 µM.

`COc1ccc(NC(=O)NNC(=O)c2c(O)ccc3ccccc23)cc1` [SC36] had an IC50 with CEM or HEY cells of 20 µM.

In the series on CEM or HEY cells, `C=C1C/C(=C\c2ccc(Cl)cc2)C(=O)N1CC(=O)NNC(=O)c1ccccc1O` [SC37] yielded an IC50 of 15 ± 3 µM.

In turn, `O=C(NNc1nc2ccccc2n2cccc12)c1ccc[nH]1` [SC141, 1H-Pyrrole-2-carboxylic acid N′-pyrrolo[1,2-a]quinoxalin-4-yl-hydrazide] had a melting point of 210 to 212 °C.

On to `Cc1cc2nc(NNC(=O)c3cnccn3)c3cccn3c2cc1C` [SC143, Pyrazine-2-carboxylic acid N′-(7,8-dimethyl-pyrrolo[1,2-a]quinoxalin-4-yl)-hydrazide], for which the melting point amounted to 116 °C.

In the case of `NCCC(=O)NNc1nc2ccccc2n2cccc12` [SC154, 3-Amino-propionic acid N′-pyrrolo[1,2-a]quinoxalin-4-yl-hydrazide], the melting point is 164.5 °C. Besides, the IC50 in series [1] (Homo sapiens) is greater than 20 µM. The molecule further showed an IC50 in series [2] (Homo sapiens) greater than 20 µM. This molecule also returned an IC50 in series [3] (Homo sapiens) greater than 20 µM. The molecule further returned an IC50 in the series on HT29 colon cancer cells (Homo sapiens) greater than 20 µM.

Take `O=C(NNc1nc2ccccc2n2cccc12)c1cc2ccccc2[nH]1` [SC155, 1H-indole-2-carboxylic acid N′-pyrrolo[1,2-a]quinoxalin-4-yl-hydrazide]: the melting point was 186 °C. For the same molecule, the IC50 in series [1] (Homo sapiens) is greater than 20 µM. This molecule showed an IC50 in series [2] (Homo sapiens) greater than 20 µM. This molecule registered an IC50 in series [3] (Homo sapiens) greater than 20 µM. For the same molecule, the IC50 with HT29 colon cancer cells (Homo sapiens) was greater than 20 µM.

Molecule `O=C(NNc1nc2ccccc2n2cccc12)c1ccc2[nH]ccc2c1` [SC156, 1H-Indole-5-carboxylic acid N′-pyrrolo[1,2-a]quinoxalin-4-yl-hydrazide] yielded a melting point of 160 °C. In series [1] (Homo sapiens), the IC50 was greater than 20 µM. Besides, the IC50 in series [2] (Homo sapiens) was greater than 20 µM. In series [3] (Homo sapiens), this molecule returned an IC50 greater than 20 µM. This molecule also had an IC50 in the series with HT29 colon cancer cells (Homo sapiens) greater than 20 µM.

As for `COc1ccccc1C(=O)NNc1nc2ccccc2n2cccc12` [SC159, 2-Methoxy-N′-(H-pyrrolo[1,2-a]quinoxalin-4-yl)benzohydrazide], the IC50 (in series [1]; in series [2]; in series [3]; with HT29 colon cancer cells) was greater than 20 µM each time.

As for `N#Cc1ccc(C(N)CC(=O)NNc2nc3ccccc3n3cccc23)cc1` (stereo not drawn) [SC163, 3-Amino-3-(4-cyano-phenyl)-propionic acid N′-pyrrolo[1,2-a]quinoxalin-4-yl-hydrazide], the IC50 (in series [1] (Homo sapiens); in series [2] (Homo sapiens); in series [3] (Homo sapiens); in the series on HT29 colon cancer cells (Homo sapiens)) was greater than 20 µM each time.

With `COc1ccc(C(N)CC(=O)NNc2nc3ccccc3n3cccc23)cc1` (stereo not drawn) [SC164, 3-Amino-3-(4-methoxy-phenyl)-propionic acid N′-pyrrolo[1,2-a]quinoxalin-4-yl-hydrazide], the IC50 (in series [1] (Homo sapiens); in series [2] (Homo sapiens); in series [3] (Homo sapiens); in the series with HT29 colon cancer cells (Homo sapiens)) was greater than 20 µM in each case.

On to `NC(CC(=O)NNc1nc2ccccc2n2cccc12)c1ccc(C(F)(F)F)cc1` (stereo not drawn) [SC165, 3-Amino-3-(4-trifluoromethyl-phenyl)-propionic acid N′-pyrrolo[1,2-a]quinoxalin-4-yl-hydrazide], for which the IC50 (in series [1] (Homo sapiens); in series [2] (Homo sapiens); in series [3] (Homo sapiens); in the series on HT29 colon cancer cells (Homo sapiens)) was greater than 20 µM each time.

As for `O=C(NNc1nc2ccccc2n2cccc12)c1ccccc1F` [SC166, 2-Fluoro-benzoic acid N′-pyrrolo[1,2-a]quinoxalin-4-yl-hydrazide], the IC50 in series [1] (Homo sapiens) was 15 ± 1 µM; in series [2] (Homo sapiens) it was 8 ± 1 µM; in series [3] (Homo sapiens), 11 ± 1 µM; with HT29 colon cancer cells (Homo sapiens) it was 13 ± 2 µM.

As for `CC(=O)O[C@H]1C(=O)[C@@]2(C)[C@H]([C@H](OC(=O)c3ccccc3)[C@]3(O)C[C@H](OC(=O)[C@H](O)[C@@H](NC(=O)c4ccccc4)c4ccccc4)C(C)=C1C3(C)C)[C@]1(OC(C)=O)CO[C@@H]1C[C@@H]2O` [Taxol], in the series with MDA-MB-435 cells, half-maximal cytotoxicity (CC50) was put at 0.04 ± 0.003 µM and the IC80 was 0.07 ± 0.01 µM.
